# Measurements: article PMC5218480 (PLoS ONE, 2017)
# System: MV-4-11 cells
# Assay: Gene expression microarray analysis (Affymetrix PrimeView) and GSEA
# Format: cell-based, human
# Set-up: RFU PODN (11730768_x_at) / Fold change /veh PODN (11730768_x_at) / RFU LINC00158 (11744669_a_at) / Fold change /veh LINC00158 (11744669_a_at) / RFU DUSP10 (11751237_a_at) / Fold change /veh DUSP10 (11751237_a_at) / RFU ID3 (11757404_x_at) / Fold change /veh ID3 (11757404_x_at) / RFU PLEKHG5 (11737974_s_at) / Fold change /veh PLEKHG5 (11737974_s_at) / RFU LRRC4B (11730491_at) / Fold change /veh LRRC4B (11730491_at) / RFU GIMAP4 (11747438_a_at) / Fold change /veh GIMAP4 (11747438_a_at) / RFU KRT8 (11758183_x_at) / Fold change /veh KRT8 (11758183_x_at) / RFU CNN1 (11734310_a_at) / Fold change /veh CNN1 (11734310_a_at) / RFU VPS37D (11726825_at) / Fold change /veh VPS37D (11726825_at) / RFU C10orf10 (11716522_x_at) / Fold change /veh C10orf10 (11716522_x_at) / RFU KIR2DL2 /// KIR2DL4 /// KIR2DL5A /// KIR2DL5B /// KIR2DS1 /// KIR2DS2 /// KIR2DS3 /// KIR2DS4 /// KIR3DL3 /// KIR3DL3 /// KIR3DS1 (11738374_at) / Fold change /veh KIR2DL2 /// KIR2DL4 /// KIR2DL5A /// KIR2DL5B /// KIR2DS1 /// KIR2DS2 /// KIR2DS3 /// KIR2DS4 /// KIR3DL3 /// KIR3DL3 /// KIR3DS1 (11738374_at) / RFU C1QL1 (11718748_at) / Fold change /veh C1QL1 (11718748_at) / RFU TMPRSS4 (11747572_a_at) / Fold change /veh TMPRSS4 (11747572_a_at) / RFU HAMP (11756126_x_at) / Fold change /veh HAMP (11756126_x_at) / RFU RNFT2 (11725882_a_at) / Fold change /veh RNFT2 (11725882_a_at) / RFU NR4A2 (11747474_a_at) / Fold change /veh NR4A2 (11747474_a_at) / RFU ABCC12 (11746883_a_at) / Fold change /veh ABCC12 (11746883_a_at) / RFU TMEM136 (11760407_x_at) / Fold change /veh TMEM136 (11760407_x_at) / RFU CLDN22 /// WWC2 (11732394_at) / Fold change /veh CLDN22 /// WWC2 (11732394_at) / RFU HLA-DPB1 (11760878_x_at) / Fold change /veh HLA-DPB1 (11760878_x_at) / RFU SPINT1 (11716480_a_at) / Fold change /veh SPINT1 (11716480_a_at) / RFU GAP43 (11754022_s_at) / Fold change /veh GAP43 (11754022_s_at) / RFU A4GNT (11735810_at) / Fold change /veh A4GNT (11735810_at) / RFU PRB3 (11715151_x_at) / Fold change /veh PRB3 (11715151_x_at) / RFU TUBB4B (11761932_at) / Fold change /veh TUBB4B (11761932_at) / RFU CAPN14 (11732068_a_at) / Fold change /veh CAPN14 (11732068_a_at) / RFU TMCC2 (11721928_a_at) / Fold change /veh TMCC2 (11721928_a_at) / RFU IRGQ (11745062_a_at) / Fold change /veh IRGQ (11745062_a_at) / RFU FAM174B (11720279_a_at) / Fold change /veh FAM174B (11720279_a_at) / RFU TMPRSS4 (11748680_a_at) / Fold change /veh TMPRSS4 (11748680_a_at) / RFU FAM212B (11763350_a_at) / Fold change /veh FAM212B (11763350_a_at) / RFU PLEKHG5 (11743358_a_at) / Fold change /veh PLEKHG5 (11743358_a_at) / RFU ZSCAN30 (11745921_a_at) / Fold change /veh ZSCAN30 (11745921_a_at) / RFU CMKLR1 (11741424_a_at) / Fold change /veh CMKLR1 (11741424_a_at) / RFU LOC101060620 /// MAPK8IP1 (11723275_at) / Fold change /veh LOC101060620 /// MAPK8IP1 (11723275_at) / RFU SPTSSB (11747773_x_at) / Fold change /veh SPTSSB (11747773_x_at) / RFU PRSS12 (11739890_at) / Fold change /veh PRSS12 (11739890_at) / RFU BIN1 (11741810_x_at) / Fold change /veh BIN1 (11741810_x_at) / RFU WNT11 (11732464_a_at) / Fold change /veh WNT11 (11732464_a_at) / RFU C10orf10 (11716521_a_at) / Fold change /veh C10orf10 (11716521_a_at) / RFU C5orf56 (11738089_at) / Fold change /veh C5orf56 (11738089_at) / RFU CYB561 (11721691_x_at) / Fold change /veh CYB561 (11721691_x_at) / RFU ANKRD19P (11752326_a_at) / Fold change /veh ANKRD19P (11752326_a_at) / RFU OR2T12 /// OR2T33 /// OR2T8 (11738714_s_at) / Fold change /veh OR2T12 /// OR2T33 /// OR2T8 (11738714_s_at) / RFU VCAN (11748164_a_at) / Fold change /veh VCAN (11748164_a_at) / RFU JSRP1 (11732532_at) / Fold change /veh JSRP1 (11732532_at) / RFU KRTAP10-11 (11738290_x_at) / Fold change /veh KRTAP10-11 (11738290_x_at) / RFU MYO3A (11730013_a_at) / Fold change /veh MYO3A (11730013_a_at) / RFU EBF3 (11725865_a_at) / Fold change /veh EBF3 (11725865_a_at) / RFU CAMK2N1 (11719241_x_at) / Fold change /veh CAMK2N1 (11719241_x_at) / RFU C5orf56 (11738088_a_at) / Fold change /veh C5orf56 (11738088_a_at) / RFU OLFML3 (11715873_a_at) / Fold change /veh OLFML3 (11715873_a_at) / RFU LOC100653217 /// NTM (11731650_a_at) / Fold change /veh LOC100653217 /// NTM (11731650_a_at) / RFU MAPK11 (11762145_a_at) / Fold change /veh MAPK11 (11762145_a_at) / RFU FIZ1 (11724087_x_at) / Fold change /veh FIZ1 (11724087_x_at) / RFU OASL (11726364_x_at) / Fold change /veh OASL (11726364_x_at) / RFU SOX15 (11748057_x_at) / Fold change /veh SOX15 (11748057_x_at) / RFU CD79A (11719716_a_at) / Fold change /veh CD79A (11719716_a_at) / RFU HIST1H1D (11736915_at) / Fold change /veh HIST1H1D (11736915_at) / RFU CASKIN2 (11723855_a_at) / Fold change /veh CASKIN2 (11723855_a_at) / RFU LOC730098 (11760151_x_at) / Fold change /veh LOC730098 (11760151_x_at) / RFU OR4N2 (11742367_at) / Fold change /veh OR4N2 (11742367_at) / RFU PRRT2 (11749266_a_at) / Fold change /veh PRRT2 (11749266_a_at) / RFU SNX32 (11753110_a_at) / Fold change /veh SNX32 (11753110_a_at) / RFU CDHR5 (11726645_a_at) / Fold change /veh CDHR5 (11726645_a_at) / RFU RCAN1 (11760418_a_at) / Fold change /veh RCAN1 (11760418_a_at) / RFU FAM167A (11723789_a_at) / Fold change /veh FAM167A (11723789_a_at) / RFU FAM26E (11764081_at) / Fold change /veh FAM26E (11764081_at) / RFU ISYNA1 (11749810_s_at) / Fold change /veh ISYNA1 (11749810_s_at) / RFU ACY1 (11761880_at) / Fold change /veh ACY1 (11761880_at) / RFU 11764098_at / Fold change /veh 11764098_at / RFU SAMD14 (11745864_x_at) / Fold change /veh SAMD14 (11745864_x_at) / RFU NPB (11741838_a_at) / Fold change /veh NPB (11741838_a_at) / RFU TMPRSS6 (11731388_a_at) / Fold change /veh TMPRSS6 (11731388_a_at) / RFU KRTAP10-2 (11738614_at) / Fold change /veh KRTAP10-2 (11738614_at) / RFU ARHGAP8 /// PRR5-ARHGAP8 (11727945_x_at) / Fold change /veh ARHGAP8 /// PRR5-ARHGAP8 (11727945_x_at) / RFU KRTAP5-7 /// NADSYN1 (11734609_at) / Fold change /veh KRTAP5-7 /// NADSYN1 (11734609_at) / RFU RASL12 (11751679_a_at) / Fold change /veh RASL12 (11751679_a_at) / RFU CDKN2B (11736163_a_at) / Fold change /veh CDKN2B (11736163_a_at) / RFU PRF1 (11729649_at) / Fold change /veh PRF1 (11729649_at) / RFU, ZNF638 /// ZNF638-IT1 / Fold change vs veh, ZNF638 /// ZNF638-IT1 / RFU, PANK3 / Fold change vs veh, PANK3 / RFU, SH3YL1 / Fold change vs veh, SH3YL1 / RFU, ZEB2 / Fold change vs veh, ZEB2 / RFU, NRIP1 / Fold change vs veh, NRIP1 / RFU, PTTG1IP / Fold change vs veh, PTTG1IP / RFU, CAPN2 / Fold change vs veh, CAPN2 / RFU, MED14 / Fold change vs veh, MED14 / RFU, SNORA58 / Fold change vs veh, SNORA58 / RFU, C1orf63 / Fold change vs veh, C1orf63 / RFU, LRRFIP1 / Fold change vs veh, LRRFIP1 / RFU, NDUFAF7 / Fold change vs veh, NDUFAF7 / RFU, SLC12A2 / Fold change vs veh, SLC12A2 / RFU, IBTK / Fold change vs veh, IBTK / RFU, ESF1 / Fold change vs veh, ESF1 / Fold change vs veh, TMEM50B / RFU, TAOK1 / Fold change vs veh, TAOK1 / RFU, ACBD3 / Fold change vs veh, ACBD3 / RFU, TMA16 / Fold change vs veh, TMA16 / RFU, RWDD3 / Fold change vs veh, RWDD3 / RFU, BCAT1 / Fold change vs veh, BCAT1 / RFU, EDEM3 / Fold change vs veh, EDEM3 / RFU, TMEM33 / Fold change vs veh, TMEM33 / RFU, WDR75 / Fold change vs veh, WDR75 / RFU, AHCTF1 / Fold change vs veh, AHCTF1 / RFU, TFRC / Fold change vs veh, TFRC / RFU, ZDHHC17 / Fold change vs veh, ZDHHC17 / RFU, NOM1 / Fold change vs veh, NOM1 / RFU, ARL8B / Fold change vs veh, ARL8B / RFU, ZBTB11 / Fold change vs veh, ZBTB11 / RFU, TAMM41 / Fold change vs veh, TAMM41 / RFU, KIAA1704 /// LOC100996395 / Fold change vs veh, KIAA1704 /// LOC100996395 / RFU, ING1 / Fold change vs veh, ING1 / RFU, TRMT61B / Fold change vs veh, TRMT61B / RFU, FUBP3 / Fold change vs veh, FUBP3 / RFU, TP53 / Fold change vs veh, TP53 / RFU, TNKS2 / Fold change vs veh, TNKS2 / RFU, ZFP14 / Fold change vs veh, ZFP14 / RFU, ACTR2 / Fold change vs veh, ACTR2 / RFU, PPP3R1 / Fold change vs veh, PPP3R1 / RFU, PIK3R1 / Fold change vs veh, PIK3R1 / RFU, HNRNPA1 / Fold change vs veh, HNRNPA1 / RFU, RNF170 / Fold change vs veh, RNF170 / RFU, ZNF28 / Fold change vs veh, ZNF28 / RFU, RNGTT / Fold change vs veh, RNGTT / RFU, OGT / Fold change vs veh, OGT / RFU, BRD1 / Fold change vs veh, BRD1 / RFU, MARS / Fold change vs veh, MARS / RFU, ZNF655 / Fold change vs veh, ZNF655 / RFU, FAHD1 / Fold change vs veh, FAHD1 / RFU, BDP1 / Fold change vs veh, BDP1 / RFU, LRRCC1 / Fold change vs veh, LRRCC1 / RFU, ARID1A / Fold change vs veh, ARID1A / RFU, ZNF146 / Fold change vs veh, ZNF146 / RFU, ZNF330 / Fold change vs veh, ZNF330 / RFU, GPN3 / Fold change vs veh, GPN3 / RFU, C9orf123 / Fold change vs veh, C9orf123 / RFU, N4BP2L2 / Fold change vs veh, N4BP2L2 / RFU, ARFIP1 / Fold change vs veh, ARFIP1 / RFU, FAM179B / Fold change vs veh, FAM179B / RFU, BCL10 / Fold change vs veh, BCL10 / RFU, UHRF1BP1L / Fold change vs veh, UHRF1BP1L / RFU, BET1 / Fold change vs veh, BET1 / RFU, CNOT2 / Fold change vs veh, CNOT2 / RFU, ZNF268 / Fold change vs veh, ZNF268 / Fold change vs veh, ZNF507 / RFU, DGCR2 / Fold change vs veh, DGCR2 / RFU, WDSUB1 / Fold change vs veh, WDSUB1 / Fold change vs veh, HSP90B1 /// MIR3652 / RFU, ADSS / Fold change vs veh, ADSS / RFU, GK / Fold change vs veh, GK / RFU, ZNF148 / Fold change vs veh, ZNF148 / RFU, TAF9 / Fold change vs veh, TAF9 / RFU, SLC1A5 / Fold change vs veh, SLC1A5 / RFU, SLMO2 / Fold change vs veh, SLMO2 / RFU, ABCC4 / Fold change vs veh, ABCC4 / RFU, LOC101060439 /// RAP1B / Fold change vs veh, LOC101060439 /// RAP1B / RFU, RFX7 / Fold change vs veh, RFX7 / RFU, GTPBP10 / Fold change vs veh, GTPBP10 / RFU, CNEP1R1 / Fold change vs veh, CNEP1R1 / RFU, BIVM-ERCC5 /// ERCC5 / Fold change vs veh, BIVM-ERCC5 /// ERCC5 / RFU, ILF3 / Fold change vs veh, ILF3 / RFU 11762660_at / Fold change /veh 11762660_at / RFU VCAN (11757783_s_at) / Fold change /veh VCAN (11757783_s_at) / RFU DDX43 (11728927_at) / Fold change /veh DDX43 (11728927_at) / RFU KRT8 (11758188_x_at) / Fold change /veh KRT8 (11758188_x_at) / RFU NKD1 (11759106_at) / Fold change /veh NKD1 (11759106_at) / RFU SRD5A1 (11742802_a_at) / Fold change /veh SRD5A1 (11742802_a_at) / RFU TPSAB1 /// TPSB2 (11721975_s_at) / Fold change /veh TPSAB1 /// TPSB2 (11721975_s_at) / RFU GSTM3 (11746129_a_at) / Fold change /veh GSTM3 (11746129_a_at) / RFU IL23R (11737362_x_at) / Fold change /veh IL23R (11737362_x_at) / RFU TMEM51 (11727254_a_at) / Fold change /veh TMEM51 (11727254_a_at) / RFU PIWIL2 (11732686_x_at) / Fold change /veh PIWIL2 (11732686_x_at) / RFU ORM1 (11744905_x_at) / Fold change /veh ORM1 (11744905_x_at) / RFU CCDC152 (11743942_at) / Fold change /veh CCDC152 (11743942_at) / RFU ECM1 (11717891_a_at) / Fold change /veh ECM1 (11717891_a_at) / RFU IL23R (11748794_a_at) / Fold change /veh IL23R (11748794_a_at) / RFU TNFAIP8L3 (11732012_x_at) / Fold change /veh TNFAIP8L3 (11732012_x_at) / RFU MBOAT4 (11741988_at) / Fold change /veh MBOAT4 (11741988_at) / RFU 11764193_at / Fold change /veh 11764193_at / RFU TMEM53 (11763286_at) / Fold change /veh TMEM53 (11763286_at) / RFU MAGEB2 (11727129_at) / Fold change /veh MAGEB2 (11727129_at) / RFU TMEM200A (11744735_a_at) / Fold change /veh TMEM200A (11744735_a_at) / RFU CCDC152 (11751479_a_at) / Fold change /veh CCDC152 (11751479_a_at) / RFU FAM211A (11726209_a_at) / Fold change /veh FAM211A (11726209_a_at) / RFU RGS16 (11746705_a_at) / Fold change /veh RGS16 (11746705_a_at) / RFU VCAN (11755009_s_at) / Fold change /veh VCAN (11755009_s_at) / RFU RHOB (11743442_s_at) / Fold change /veh RHOB (11743442_s_at) / RFU RGS16 (11720943_a_at) / Fold change /veh RGS16 (11720943_a_at) / RFU RGS16 (11720944_at) / Fold change /veh RGS16 (11720944_at) / RFU, VPS4B / Fold change vs veh, VPS4B / RFU, CREB1 / Fold change vs veh, CREB1 / RFU, DNAJC13 / Fold change vs veh, DNAJC13 / RFU, GNAQ / Fold change vs veh, GNAQ / RFU, CDK5R1 / Fold change vs veh, CDK5R1 / RFU, ZRANB3 / Fold change vs veh, ZRANB3 / RFU, CUL4A / Fold change vs veh, CUL4A / RFU, CCNY / Fold change vs veh, CCNY / RFU, UFL1 / Fold change vs veh, UFL1 / RFU, COG3 / Fold change vs veh, COG3 / RFU, DIAPH2 / Fold change vs veh, DIAPH2 / RFU, SKA2 / Fold change vs veh, SKA2 / RFU, AFF3 / Fold change vs veh, AFF3 / RFU, LMF1 / Fold change vs veh, LMF1 / RFU, IPO11 / Fold change vs veh, IPO11 / RFU, DFFB / Fold change vs veh, DFFB / RFU, FOXP1 / Fold change vs veh, FOXP1 / RFU, CARD8 / Fold change vs veh, CARD8 / RFU, STRN3 / Fold change vs veh, STRN3 / RFU, ADK / Fold change vs veh, ADK / RFU, RASSF2 / Fold change vs veh, RASSF2 / RFU, WIPF1 / Fold change vs veh, WIPF1 / RFU, LARP1B / Fold change vs veh, LARP1B / RFU, RASA1 / Fold change vs veh, RASA1 / RFU, RB1 / Fold change vs veh, RB1 / RFU, PPFIA1 / Fold change vs veh, PPFIA1 / RFU, MAT2A / Fold change vs veh, MAT2A / RFU, CCT5 / Fold change vs veh, CCT5 / RFU, WDR92 / Fold change vs veh, WDR92 / RFU, CUX1 / Fold change vs veh, CUX1 / RFU, TTC7A / Fold change vs veh, TTC7A / RFU, TMEM135 / Fold change vs veh, TMEM135 / RFU, DEPTOR / Fold change vs veh, DEPTOR / RFU, CPM / Fold change vs veh, CPM / RFU, DNAJB6 / Fold change vs veh, DNAJB6 / RFU, CACNA2D3 / Fold change vs veh, CACNA2D3 / RFU, DTX4 / Fold change vs veh, DTX4 / RFU, TFCP2 / Fold change vs veh, TFCP2 / RFU, GMCL1 /// GMCL1P1 / Fold change vs veh, GMCL1 /// GMCL1P1 / RFU, AEBP2 / Fold change vs veh, AEBP2 / RFU, SNHG1 /// SNORD22 /// SNORD25 /// SNORD26 /// SNORD27 /// SNORD28 /// SNORD29 /// SNORD31 / Fold change vs veh, SNHG1 /// SNORD22 /// SNORD25 /// SNORD26 /// SNORD27 /// SNORD28 /// SNORD29 /// SNORD31 / Fold change (Aza/veh), C12orf56 (ProbeSet 11735607_a_at) / Fold change (ACY-1035/veh), C12orf56 (ProbeSet 11735607_a_at) / Fold change (Aza/veh), FGFR1OP (ProbeSet 11751329_s_at) / Fold change (ACY-1035/veh), FGFR1OP (ProbeSet 11751329_s_at) / Fold change (Aza/veh), VPS36 (ProbeSet 11739960_a_at) / Fold change (ACY-1035/veh), VPS36 (ProbeSet 11739960_a_at) / RFU SYPL1 (11715823_x_at) / Fold change /veh SYPL1 (11715823_x_at) / RFU IGFBP7 (11715501_s_at) / Fold change /veh IGFBP7 (11715501_s_at) / RFU REEP3 (11722064_at) / Fold change /veh REEP3 (11722064_at) / RFU IGLL1 (11728026_x_at) / Fold change /veh IGLL1 (11728026_x_at): dose or concentration left out as unconfirmed
# Details: ProbeSet 11739106_a_at; LIST B
compound,measurement,value
Nc1ncn([C@@H]2O[C@H](CO)[C@@H](O)[C@H]2O)c(=O)n1 [azacitidine],"RFU, TMEM33",268.42 RFU
